Tests used:
CASP1 = assay: Western blot CASP1 in MPP^+-stimulated HMC3 cells; format: cell-based, human; details: HMC3, 4 mM MPP^+ alone; untreated = 100%
Method: HMC3 (2 × 10^5/6-well) or BE(2)-M17 (4 × 10^5/6-well) cells were lysed in buffer (composition: 50 mM Tris-HCl pH8.0, 2 mM EDTA pH8.0, 150 mM NaCl, 0.5% sodium deoxycholate, 0.1% SDS, 50 mM NaF, 1% NP40) containing the protease and/or phosphatase inhibitor cocktail (Sigma-Aldrich). After sonication, the lysates were centrifuged (12,000 × g for 10 min at 4°C) and protein concentrations determined (Bradford protein assay; Bio-Rad, Hercules, CA, USA). Aliquots of protein (20 μg) were separated by electrophoresis using 10%−12% SDS–polyacrylamide gel followed by transfer to a polyvinylidene fluoride (PVDF) membrane. […] The immune complexes were detected using horseradish peroxidase (HRP)-conjugated goat anti-mouse or goat anti-rabbit IgG antibody (1:5,000; GeneTex) and chemiluminescent HRP substrate (Millipore, Burlington, MA, USA). Immunoreactive bands were captured (ImageQuant™ LAS 4000, GE Healthcare, Chicago, IL, USA) and quantified (Multi Gauge V3.0 software, Fujifilm, Tokyo, Japan).

caspase-6 = caspase-6 activity assay in MPP^+-treated BE(2)-M17 cells; format: cell-based, human; details: BE(2)-M17, 0.62 mM MPP^+ alone; untreated = 100%
Method: BE(2)-M17 cells were plated onto six-well (4 × 10^5/well) and treated with retinoic acid, LM compounds (10 μM), and MPP^+ as described. Cells were collected on day 7 and lysed by six freeze/thaw cycles. Types of substrates applied were: Ac-Tyr-Val-Ala-Asp-7-amino-4-trifluoromethyl coumarin (YVAD-AFC) for caspase-1, Ac-Val-Glu-Ile-Asp-7-amino-4-trifluoromethyl coumarin (VEID-AFC) for caspase-6 (BioVision, Milpitas, CA, USA), and Ac-Asp-Glu-Val-Asp-7-amido-4-methylcoumarin (DEVD-AMC) for caspase-3 (Sigma-Aldrich). The reaction mixtures were incubated for 1.5 h at 37°C per the manufacturer's instructions. The fluorescence intensity at 400 nm excitation and 505 nm emission (caspase-1 and caspase-6) or 360 nm excitation and 460 nm emission (caspase-3) wavelengths were recorded (BioTek FLx800).

Q: How did the CASP1 expression (CASP1) turn out when `C[n+]1ccc(-c2ccccc2)cc1` [MPP^+, 1-methyl-4-phenyl pyridinium, reference compound] was run?
A: 218%

Q: And the caspase-6 activity (caspase-6)?
A: 116%
